Results as given in ChEMBL document CHEMBL5029155, “Design, Synthesis, and Biological Evaluation of Stable Colchicine-Binding Site Tubulin Inhibitors 6-Aryl-2-benzoyl-pyridines as Potential Anticancer Agents” (J Med Chem, 2021).
Values after ≈ are worked out from the molar mass of the structure shown.

Columns and labels:
Salmonella typhimurium [1] = assay: Mutagenicity in Salmonella typhimurium TA1537 by Ames test; assay type: toxicity, organism-based; conditions: salmonella enterica subsp. enterica serovar typhimurium
[2] = Systemic toxicity in human A375/TxR cells xenografted in SCID mouse tumor model assessed as pathological change in liver at 10 to 20 mg/kg, ip by H and E staining based analysis; assay type: organism-based; conditions: in vivo, dose 10-20 mg/kg
CYP2C8 = biological target: T1, CYP2C8 (Homo sapiens, UniProt P10632); assay: Inhibition of CYP2C8 in human liver microsomes using amodiaquine as substrate at 10 uM; assay type: ADME; conditions: probe amodiaquine
T1 sequence (P10632 whole entry): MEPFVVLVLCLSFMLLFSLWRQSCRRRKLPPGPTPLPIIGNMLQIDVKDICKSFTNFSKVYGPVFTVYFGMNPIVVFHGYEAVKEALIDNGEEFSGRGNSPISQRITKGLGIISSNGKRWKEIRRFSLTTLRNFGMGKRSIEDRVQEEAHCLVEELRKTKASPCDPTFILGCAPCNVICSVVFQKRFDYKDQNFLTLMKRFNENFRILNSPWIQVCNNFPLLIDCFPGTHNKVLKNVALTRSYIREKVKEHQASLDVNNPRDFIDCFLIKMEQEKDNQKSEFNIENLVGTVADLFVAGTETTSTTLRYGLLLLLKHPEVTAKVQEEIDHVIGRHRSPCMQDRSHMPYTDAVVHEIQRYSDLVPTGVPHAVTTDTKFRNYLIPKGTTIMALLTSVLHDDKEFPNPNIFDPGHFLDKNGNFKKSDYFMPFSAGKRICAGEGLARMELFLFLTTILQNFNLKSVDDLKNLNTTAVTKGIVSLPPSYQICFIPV

A375/TxR [3] = assay: Induction of cell cycle arrest in human A375/TxR cells assessed as decrease in accumulation at S phase measured for 24 hrs by PI staining based flow cytometry analysis; assay type: functional
MDA-MB-231 [4] = assay: Cytotoxicity against human MDA-MB-231 cells measured after 72 hrs […]; assay type: functional, cell-based; conditions: MDA-MB-231, 72 h
RPMI-7951 = assay: Antiproliferative activity against human RPMI-7951 cells assessed as cell growth inhibition incubated for 72 hrs by MTS assay; assay type: functional, cell-based; conditions: RPMI-7951, 72 h
MDA-MB-231 [5] = assay: Antiproliferative activity against human MDA-MB-231 cells assessed as cell growth inhibition incubated for 72 hrs by MTS assay; assay type: functional, cell-based; conditions: MDA-MB-231, 72 h
CYP3A = assay: Inhibition of CYP3A in human liver microsomes using midazolam as substrate at 10 uM; assay type: ADME; conditions: probe midazolam
[6] = Aqueous solubility of compound in pH 7.4 PBS buffer; assay type: physicochemical
Salmonella typhimurium [7] = assay: Mutagenicity in Salmonella typhimurium TA1535 by Ames test; assay type: toxicity, organism-based; conditions: salmonella enterica subsp. enterica serovar typhimurium
[8] = AUClast in NSG mouse at 10 mg/kg, ip; assay type: ADME, organism-based; set-up: time 0 - last, route intraperitoneal, dose 10 mg/kg; conditions: in vivo
[9] = Clearance in NSG mouse at 10 mg/kg, ip; assay type: ADME, organism-based; conditions: in vivo
[10] = Tmax in NSG mouse at 10 mg/kg, ip; assay type: ADME, organism-based; conditions: in vivo
A-375 = assay: Antiproliferative activity against human A-375 cells assessed as cell growth inhibition incubated for 72 hrs by MTS assay; assay type: functional, cell-based; conditions: A-375, 72 h
[11] = Systemic toxicity in human A375/TxR cells xenografted in SCID mouse tumor model assessed as pathological change in kidney at 10 to 20 mg/kg, ip by H and E staining based analysis; assay type: organism-based; conditions: in vivo, dose 10-20 mg/kg
CYP2C9 = CYP2C9 (Homo sapiens, UniProt P11712); assay: Inhibition of CYP2C9 in human liver microsomes using diclofenac as substrate at 10 uM; assay type: ADME; conditions: probe diclofenac
Sequence of CYP2C9 (P11712 whole entry): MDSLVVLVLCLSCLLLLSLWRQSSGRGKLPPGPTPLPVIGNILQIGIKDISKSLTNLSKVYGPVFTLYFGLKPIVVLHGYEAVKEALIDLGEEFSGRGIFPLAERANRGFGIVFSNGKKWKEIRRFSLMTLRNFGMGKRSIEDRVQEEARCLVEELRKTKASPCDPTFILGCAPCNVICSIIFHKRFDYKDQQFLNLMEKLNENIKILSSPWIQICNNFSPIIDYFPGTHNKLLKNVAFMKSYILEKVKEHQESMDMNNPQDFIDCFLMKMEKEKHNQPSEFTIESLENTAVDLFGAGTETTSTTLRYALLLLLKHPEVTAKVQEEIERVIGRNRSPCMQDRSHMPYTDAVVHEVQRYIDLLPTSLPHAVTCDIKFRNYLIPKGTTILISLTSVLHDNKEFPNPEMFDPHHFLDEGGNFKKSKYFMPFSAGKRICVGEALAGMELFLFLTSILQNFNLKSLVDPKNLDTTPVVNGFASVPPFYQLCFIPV

[12] = Induction of apoptosis in human A375/TxR cells assessed as apoptotic cells at 2.5 nM measured for 24 hrs by annexin VFITC /PI staining based analysis (reference value: […]); assay type: functional
[13] = Metabolic stability in human liver microsomes assessed as half life in presence of NADPH regenerating system by UPLC-MS analysis; assay type: ADME, Microsome; conditions: microsomes
A375/TxR [14] = assay: Antimetastatic activity against human A375/TxR cells xenografted in SCID mouse assessed as metastatic in lungs; assay type: functional
hERG (KCNH2) = hERG (KCNH2) (Homo sapiens, UniProt Q12809); assay: Inhibition of human ERG at 10 uM
Sequence of hERG (KCNH2) (Q12809 whole entry): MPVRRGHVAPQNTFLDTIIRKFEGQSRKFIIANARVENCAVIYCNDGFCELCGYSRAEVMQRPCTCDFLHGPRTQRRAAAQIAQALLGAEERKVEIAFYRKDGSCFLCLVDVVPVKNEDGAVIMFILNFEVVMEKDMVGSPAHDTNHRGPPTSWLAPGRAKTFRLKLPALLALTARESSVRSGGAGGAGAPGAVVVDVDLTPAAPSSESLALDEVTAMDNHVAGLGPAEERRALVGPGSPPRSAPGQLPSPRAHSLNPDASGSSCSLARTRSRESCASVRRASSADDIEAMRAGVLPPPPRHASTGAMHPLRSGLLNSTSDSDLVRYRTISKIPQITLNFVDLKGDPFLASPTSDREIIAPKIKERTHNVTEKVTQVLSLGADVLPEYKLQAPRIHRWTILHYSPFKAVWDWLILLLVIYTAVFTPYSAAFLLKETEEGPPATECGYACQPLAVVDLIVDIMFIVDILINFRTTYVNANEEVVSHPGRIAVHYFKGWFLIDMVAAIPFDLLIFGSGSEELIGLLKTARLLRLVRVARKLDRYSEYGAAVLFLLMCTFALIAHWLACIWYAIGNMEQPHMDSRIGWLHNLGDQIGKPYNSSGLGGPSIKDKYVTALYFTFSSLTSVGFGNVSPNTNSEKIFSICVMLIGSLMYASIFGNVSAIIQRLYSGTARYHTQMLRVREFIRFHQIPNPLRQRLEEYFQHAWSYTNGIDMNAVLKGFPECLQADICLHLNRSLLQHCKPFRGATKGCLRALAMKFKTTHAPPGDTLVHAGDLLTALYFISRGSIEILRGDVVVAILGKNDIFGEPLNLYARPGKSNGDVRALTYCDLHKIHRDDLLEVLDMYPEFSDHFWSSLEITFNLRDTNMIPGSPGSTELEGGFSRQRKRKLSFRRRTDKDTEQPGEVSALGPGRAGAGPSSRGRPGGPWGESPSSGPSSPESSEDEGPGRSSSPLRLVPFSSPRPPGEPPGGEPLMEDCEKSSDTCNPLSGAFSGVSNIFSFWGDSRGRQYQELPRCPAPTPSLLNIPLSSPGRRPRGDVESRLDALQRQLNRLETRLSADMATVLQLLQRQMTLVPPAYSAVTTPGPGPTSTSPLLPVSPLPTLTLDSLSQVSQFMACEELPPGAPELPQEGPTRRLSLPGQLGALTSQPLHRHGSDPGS

[15] = Antitumor activity against human A375/TxR cells xenografted in SCID mouse assessed as tumor growth inhibition at 10 mg/kg, ip administered 3 times/week for 18 days; assay type: functional; set-up: scale not given: the % may be the effect or the level left; conditions: time 18 day
M14 = assay: Antiproliferative activity against human M14 cells assessed as cell growth inhibition incubated for 72 hrs by MTS assay; assay type: functional, cell-based; conditions: M14, 72 h
[16] = Cytotoxicity against paclitaxel resistant human MDA-MB-231/TxR cells measured after 72 hrs […]; assay type: functional, cell-based
[17] = Cmax in NSG mouse at 10 mg/kg, ip; assay type: ADME, organism-based; set-up: route intraperitoneal, dose 10 mg/kg; conditions: in vivo
[18] = Apparent volume of distribution during terminal phase in NSG mouse at 10 mg/kg, ip; assay type: ADME, organism-based; conditions: in vivo, read-out: Vz/F
[19] = Half life in NSG mouse at 10 mg/kg, ip; assay type: ADME, organism-based; conditions: in vivo

inhibition at 10 µM (CYP2C8): 92.5%
IC50 (MDA-MB-231 [5]): 2.2 nM
inhibition at 10 µM (CYP3A): 34.7%
solubility [6]: 0.1 µM (≈ 0.0397 µg/mL)
AUClast [8]: 4872.07 h/ng/mL
CL/F [9]: 34.1 mL/min/kg
Tmax [10]: 10.2 min
IC50 (A-375): 1.8 nM
inhibition at 10 µM (CYP2C9): 54.7%
t1/2 [13]: 29.4 min
Cmax [17]: 6210 ng/mL
Vd/F [18]: 12.3 L/kg
half-life [19]: 263 min
Compound: COc1cc(C(=O)c2nc(-c3ccc(C)c(O)c3)ccc2F)cc(OC)c1OC
Activity (Salmonella typhimurium [1]): Non-Toxic
Activity [2]: Non-Toxic
Activity (A375/TxR [3]): Dose-Dependent Effect
IC50 (MDA-MB-231 [4]): 5.8 nM
IC50 (RPMI-7951): 2.4 nM
Activity (Salmonella typhimurium [7]): Non-Toxic
Activity [11]: Non-Toxic
Activity [12]: 14.5%
Activity (A375/TxR [14]): Dose-Dependent Effect
inhibition at 10 µM (hERG (KCNH2)): 5.14%
Activity [15]: 44.4%
IC50 (M14): 1.9 nM
IC50 [16]: 2.1 nM
